From patent EP3539562A1, “IMMUNOTHERAPEUTIC PEPTIDES” (Eberhard Karls Universität Tübingen Medizinische Fakultät, priority 2018, dated 2019)
Entries after “also recorded” stand apart in the source; their conditions may differ.

Key:
[1] = tested on: phospho-STAT1 (Y701); assay: Immunoblot analysis after CT-VT-RT with signalling inhibitors; assay type: cell-based, human; conditions: inhibitor added to CT-VT-RT (BX795 10 µM, fludarabine 100 µM)
Method: Cells of interest were lysed in lysis buffer containing 25 mM Tris hydrochloric acid (Tris-HCI), 120 mM sodium chloride (NaCI), 5 mM ethylenediaminetetraacetic acid (EDTA), 0.5% NP-40 and phosphatase inhibitor cocktails (Sigma Aldrich). Proteins were separated on 4-12% polyacrylamide gels (Thermo Fisher Scientific) followed by transfer to PVDF membranes (Thermo Fisher Scientific). […] Antibody against TRAIL ([…]), LC3A ([…]) and β-tubulin (9F3) were purchased from Cell Signalling (Cell Signalling, Dan-vers, USA) and used at a dilution of 1:1,000. Anti-rabbit and Anti-mouse horseradish peroxidase coupled secondary antibodies were purchased from Abcam and used at a concentration of 1:5,000. TBK1/IKKε inhibitor, BX795 was purchased from Invivogen (Invivogen, San Diego, USA) and used at a concentration of 10 μM.

[2] = tested on: IFN-β; assay: ELISA of supernatants of treated LNZ308 cells; assay type: cell-based, human; conditions: LNZ308, CT-VT-RT with or without molecular inhibitors (BX795 10 µM, fludarabine 100 µM)
Method: LNZ308 cells were seeded as 3×10^6 cells per dish and treated with different regimens as described above, supernatants were harvested after 96 hpt and concentrated using Amicon Ultra-15 Ultracel-3K centrifugal filters (Merck Millipore, Billerica, USA) with subsequent determination of total protein concentration using Bradford protein assay (Bio-Rad Laboratories). The respective chemokine/cytokine concentrations were determined enzymatically per microgram of total protein using the respective DuoSet ELISA kits according to manufacturer's instructions (R&D Systems, Minneapolis, USA).

[3] = tested on: STAT1; assay: qPCR mRNA expression in treated LNZ308 cells; assay type: cell-based, human; conditions: inhibitor applied after CT-VT-RT treatment
Method: RNA extractions were performed using the RNeasy mini kit (Qiagen) and reversely transcribed to cDNA using High-Capacity RNA-to-cDNA kit (Thermo Fisher Scientific) according to manufacturer's instructions. For each qPCR reaction, 20 ng of cDNA were amplified with custom designed primers (Supplementary Table 1) and qPCR Mastermix Plus for SYBR Green (Eurogentec, Liege, Belgium) using the 7500 Fast Real time PCR system (Thermo Fisher Scientific). Relative gene expression was determined using the ΔΔ-CT method versus the housekeeping gene ARF1.

[4] = tested on: LNZ308 cells; assay: Acute cytotoxicity assay (cell viability, Cell titer blue); assay type: cell-based; conditions: Homo sapiens, DMSO control
Method: (§1) LN229 and LNZ308 were seeded as 5,000 cells per well in 96 well plates one day before treatment initiation. All treatments were carried out in serum-free DMEM along with their respective controls, and cell viability measured at 72 h post initial treatment (hpt) using Cell titer blue solution (Promega, Madison, USA) as per manufacturer's instructions. The measured values were converted to percentage cell viability by normalizing each treatment to its respective control within the individual regimen.
(§2) The monotherapies with γ-irradiation and MeV effected dose responses as expected (Fig. 9) and in accordance with cell viability observed previously (Fig. 4). The CT-VT-RT initiated synergistic effect was retained when substituting TMZ by lomustine/CCNU. […] The cell viability and dose dependence in the non-synergistic regimens were similar to those previously observed in triple regimens using TMZ (Fig. 5).

[5] = tested on: LN229 cells; assay: as above; assay type: cell-based; conditions: Homo sapiens, LN-229, DMSO control
Method: as §1, §2

[6] = tested on: GS8 cells; assay: as above; assay type: cell-based; conditions: DMSO controls
[7] = molecular target: T1, interferon regulatory factor 1 (IRF1) (UniProt P10914 1-325); assay: proximity ligation assay in LNZ308 cells treated with CT-VT-RT plus fludarabine
T1 sequence (looked up): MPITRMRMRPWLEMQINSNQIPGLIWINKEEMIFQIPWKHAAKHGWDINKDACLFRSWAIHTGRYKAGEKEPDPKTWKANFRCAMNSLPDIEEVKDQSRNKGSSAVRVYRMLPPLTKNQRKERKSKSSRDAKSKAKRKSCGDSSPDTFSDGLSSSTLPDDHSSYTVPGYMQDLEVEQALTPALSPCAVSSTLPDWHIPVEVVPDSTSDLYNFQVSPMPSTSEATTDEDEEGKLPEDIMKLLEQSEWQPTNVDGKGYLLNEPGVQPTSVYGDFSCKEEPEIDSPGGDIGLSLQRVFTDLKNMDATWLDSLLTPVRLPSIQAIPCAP

Molecule: O=C(NCCCNc1nc(Nc2cccc(NC(=O)N3CCCC3)c2)ncc1I)c1cccs1 [BX795]
- STAT1 protein phosphorylation [1]: downregulated; also recorded: complete loss of phospho-STAT1 (Y701)
- IFN-β protein [2]: abolished; also recorded: complete loss of IFN-β production
- STAT1 transcription [3]: downregulated

Molecule: O=NN(CCCl)C(=O)NC1CCCCC1 [CCNU, lomustine]
- EC50 [4]: 45 µM
- EC50 [5]: 16 µM

Molecule: Cn1nnc2c(C(N)=O)ncn2c1=O [TMZ, temozolomide]
- EC50 [6]: 250 µM

B1: basic leucine zipper transcriptional factor ATF2-like protein (BATF2) (other, UniProt Q8N1L9 1-274, looked up)
chain: MHLCGGNGLLTQTDPKEQQRQLKKQKNRAAAQRSRQKHTDKADALHQQHESLEKDNLALRKEIQSLQAELAWWSRTLHVHERLCPMDCASCSAPGLLGCWDQAEGLLGPGPQGQHGCREQLELFQTPGSCYPAQPLSPGPQPHDSPSLLQCPLPSLSLGPAVVAEPPVQLSPSPLLFASHTGSSLQGSSSKLSALQPSLTAQTAPPQPLELEHPTRGKLGSSPDNPSSALGLARLQSREHKPALSAATWQGLVVDPSPHPLLAFPLLSSAQVHF
- binding result [7]: binds
